Each block holds one compound with its values, some of them ahead of it.
Legend:
[1] = tested on: T1, AcCR (carbonyl reductase); assay: spectrophotometric initial rate at […] nm; format: biochemical, Acetobacter sp. CCTCC M209061
T1 construct: native purification from Acetobacter cells (ammonium sulfate, DEAE-Sepharose, Native-PAGE); homotetramer 104 kDa, subunit 27 kDa

[2] = tested on: T1, AcCR (carbonyl reductase); assay: spectrophotometric initial rate at […] nm; Hill fit; format: biochemical, Acetobacter sp. CCTCC M209061; details: NADH-linked reduction (NADH fixed 1 mM), pH 5.0, 25°C; sigmoidal, cooperative
[3] = target: carbonyl reductase from Acetobacter sp. CCTCC M209061 (AcCR) (Acetobacter sp. CCTCC M209061); assay: SEC; gel permeation on Superdex G-200, 50 mM phosphate buffer pH 7.0 with 0.15 M NaCl, 0.2 ml/min, calibrated with mass markers; apparent native mass (104 kDa) compared with the subunit mass by SDS-PAGE (27 kDa)
[4] = oxidation of isopropanol (fixed 110 mM), pH 8.0, 35°C

Compound: CC(=O)c1ccc(Cl)cc1 [4′-chloroacetophenone]
Km ([1]; NADPH-linked reduction (NADPH fixed 0.1 mM), pH 7.5, 25°C): 2960 ± 87 µM | Km [2]: 4130 ± 157 µM

Km ([1]; reduction of 4′-chloroacetophenone (fixed 5 mM), pH 5.0, 25°C): 660 ± 21 µM
Compound: NC(=O)C1=CN([C@@H]2O[C@H](COP(=O)(O)OP(=O)(O)OC[C@H]3O[C@@H](n4cnc5c(N)ncnc54)[C@H](O)[C@@H]3O)[C@@H](O)[C@H]2O)C=CC1 [NADH]

Km ([1]; reduction of 4′-chloroacetophenone (fixed 5 mM), pH 7.5, 25°C): 26 ± 1 µM
Compound: NC(=O)C1=CN([C@@H]2O[C@H](COP(=O)(O)OP(=O)(O)OC[C@H]3O[C@@H](n4cnc5c(N)ncnc54)[C@H](OP(=O)(O)O)[C@@H]3O)[C@@H](O)[C@H]2O)C=CC1 [NADPH]

Km [1, 4]: 1120 ± 35 µM
Compound: NC(=O)c1ccc[n+]([C@@H]2O[C@H](COP(=O)(O)OP(=O)(O)OC[C@H]3O[C@@H](n4cnc5c(N)ncnc54)[C@H](OP(=O)(O)O)[C@@H]3O)[C@@H](O)[C@H]2O)c1 [NADP^+]

Km [1, 4]: 1330 ± 45 µM
Compound: NC(=O)c1ccc[n+]([C@@H]2O[C@H](COP(=O)(O)OP(=O)(O)OC[C@H]3O[C@@H](n4cnc5c(N)ncnc54)[C@H](O)[C@@H]3O)[C@@H](O)[C@H]2O)c1 [NAD^+]

Km ([1]; NAD+-linked oxidation (NAD+ fixed 5 mM), pH 8.0, 35°C): 48300 ± 986 µM
Compound: CC(C)O [isopropanol]

stoichiometry N [3]: 4
Compound: carbonyl reductase from Acetobacter sp. CCTCC M209061 (AcCR) (enzyme)
